From paper PMC4008314 (Clinical cancer research : an official journal of the …, 2012)
Like-named read-outs stand apart in the source and are kept apart here.

Conditions: in vivo

CNC(=O)c1cc(Oc2ccc(NC(=O)Nc3ccc(Cl)c(C(F)(F)F)c3)cc2)ccn1 [Sorafenib]
150 mg/m^2/dose: recommended phase II dose (human, 28 days)
2: Hypomagnesemia grade 1 (non-DLT) (human) | Rash/Desquamation grade 1 (non-DLT) (human) | Diarrhea grade 1 (non-DLT) (human, 28 days) | Fatigue grade 2 (non-DLT) (human, 28 days) | Hyperglycemia grade 1 (non-DLT) (human, 28 days) | Increased bilirubin grade 1 (non-DLT) (human, 28 days) | Nausea grade 1 (non-DLT) (human, 28 days) | Hypokalemia grade 1 (non-DLT) (human, 28 days (course 1)) | Hyponatremia grade 1 (non-DLT) (human, 28 days (course 1))
3: Increased AST grade 1 (non-DLT) (human, 28 days)
No dose-limiting ALT/AST elevation: dose-limiting ALT/AST elevation
1: Anorexia grade 2 (non-DLT) (human) | Headache grade 2 (non-DLT) (human) | Hyperglycemia grade 1 (non-DLT) (human) | Hypocalcemia grade 2 (non-DLT) (human) | Hypokalemia grade 3 (non-DLT) (human) | Hypophosphatemia grade 2 (non-DLT) (human) | Increased AST grade 1 (non-DLT) (human) | Increased bilirubin grade 1 (non-DLT) (human) | Nausea grade 1 (non-DLT) (human) | Anorexia grade 1 (non-DLT) (human, 28 days) | Anorexia grade 2 (non-DLT) (human, 28 days) | Diarrhea grade 2 (non-DLT) (human, 28 days) | Increased ALT grade 1 (non-DLT) (human, 28 days) | Increased ALT grade 2 (non-DLT) (human, 28 days) | Increased AST grade 2 (non-DLT) (human, 28 days) | Headache grade 1 (non-DLT) (human, 28 days (course 1)) | Headache grade 2 (non-DLT) (human, 28 days (course 1)) | Hyperglycemia grade 2 (non-DLT) (human, 28 days (course 1)) | Hypoalbuminemia grade 1 (non-DLT) (human, 28 days (course 1)) | Hypoalbuminemia grade 2 (non-DLT) (human, 28 days (course 1)) | Hypocalcemia grade 1 (non-DLT) (human, 28 days (course 1)) | Hypocalcemia grade 2 (non-DLT) (human, 28 days (course 1)) | Hypomagnesemia grade 1 (non-DLT) (human, 28 days (course 1)) | Hypomagnesemia grade 3 (non-DLT) (human, 28 days (course 1)) | Hypophosphatemia grade 2 (non-DLT) (human, 28 days (course 1)) | Hypophosphatemia grade 3 (non-DLT) (human, 28 days (course 1)) | Proteinuria grade 1 (non-DLT) (human, 28 days (course 1)) | Proteinuria grade 2 (non-DLT) (human, 28 days (course 1))
